ChEMBL document CHEMBL4680351, “Antimicrobial and cytotoxic effects of ammonium derivatives of diterpenoids steviol and isosteviol” (Bioorg Med Chem, 2021)
Non-standard residues stand in square brackets, D forms with d. Residues, ends and D or L forms follow the SMILES beside them. Orn = NCCC[C@H](N)C(=O)O

Assays:
[1] = Hemolytic activity against human erythrocytes after 1 hr by digital photoelectric colorimetric method; type: ADME, cell-based, Erythrocyte
[2] = system: WI-38; test: Cytotoxicity against human WI-38 cells assessed as reduction in cell viability by DAPI staining based assay
[3] = system: Staphylococcus aureus; test: Bactericidal activity against Staphylococcus aureus MRSA-2 measured every 24 hrs for 5 days by serial dilution method; type: functional; conditions: MRSA-2, 120 h, time 5 day
[4] = system: T98G; test: Cytotoxicity against human T98G cells assessed as reduction in cell viability by DAPI staining based assay
[5] = system: Staphylococcus aureus; test: Antibacterial activity against Staphylococcus aureus 209P assessed as bacterial growth inhibition; type: functional
[6] = system: Staphylococcus aureus; test: Bactericidal activity against Staphylococcus aureus 209P measured every 24 hrs for 5 days by serial dilution method; type: functional; conditions: 120 h, time 5 day
[7] = system: A549; test: Cytotoxicity against human A549 cells assessed as reduction in cell viability by DAPI staining based assay
[8] = system: Staphylococcus aureus; test: Antibacterial activity against Staphylococcus aureus MRSA-2 assessed as bacterial growth inhibition in Mueller-Hinton broth 2 measured every 24 hrs for 5 days by serial dilution method; type: functional; conditions: MRSA-2, 120 h, time 5 day
[9] = system: Staphylococcus aureus; test: Bactericidal activity against Staphylococcus aureus MRSA-1 measured every 24 hrs for 5 days by serial dilution method; type: functional; conditions: MRSA-1, 120 h, time 5 day
[10] = system: PC-3; test: Cytotoxicity against human PC-3 cells assessed as reduction in cell viability by DAPI staining based assay
[11] = system: HepG2; test: Cytotoxicity against human HepG2 cells assessed as reduction in cell viability by DAPI staining based assay
[12] = system: MCF7; test: Cytotoxicity against human MCF7 cells assessed as reduction in cell viability by DAPI staining based assay; type: functional
[13] = system: Staphylococcus aureus; test: Antibacterial activity against Staphylococcus aureus MRSA-1 assessed as bacterial growth inhibition in Mueller-Hinton broth 2 measured every 24 hrs for 5 days by serial dilution method; type: functional; conditions: MRSA-1, 120 h, time 5 day
[14] = system: HeLa; test: Cytotoxicity against human HeLa cells assessed as reduction in cell viability by DAPI staining based assay

Structure (SMILES)	HC50 at 1 h [1]	IC50 [2]	MBC [3]	IC50 [4]	MIC [5]	MBC [6]	IC50 [7]	MIC [8]	MBC [9]	IC50 [10]	IC50 [11]	IC50 [12]	MIC [13]	IC50 [14]
CC(C)C[C@@H]1NC(=O)[C@H](CCCN)NC(=O)[C@H](C(C)C)NC(=O)[C@@H]2CCCN2C(=O)[C@@H](Cc2ccccc2)NC(=O)[C@H](CC(C)C)NC(=O)[C@H](CCCN)NC(=O)[C@H](C(C)C)NC(=O)[C@@H]2CCCN2C(=O)[C@@H](Cc2ccccc2)NC1=O [GRAMICIDIN S] (cyclo(L[dF]PV[Orn]L[dF]PV[Orn]))	9.4 µM	–	–	–	–	–	–	–	–	–	–	–	–	–
C[C@@]12CC[C@@H]3[C@@](CC[C@H]4[C@@]3(C)CCC[C@@]4(C)C(=O)OCC[N+](C)(C)Cc3ccccc3)(CC1=O)C2	> 100 µM	> 100 µM	112 µM	> 100 µM	55.8 µM	55.8 µM	> 100 µM	112 µM	223 µM	> 100 µM	> 100 µM	> 100 µM	223 µM	> 100 µM
